Results taken from patent US11389456B2, “Compounds and methods for treating oxalate-related diseases” (OxaluRx, Inc., priority 2018, dated 2022).
≈ marks a conversion by molar mass, not a printed value. Where two headings read alike, the source gives them in different places.

How the values were obtained:
[1] = Solubility in aqueous solution (deionized, distilled water); format: physicochemical; details: 1% DMSO, read-out: Aqueous Solubility H2O
Outline: (§1)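 DMSO stock (10 mM) diluted into 100 mM phosphate buffer pH 7.4, or into deionized distilled water for the aqueous assay, at 1% final DMSO and shaken 1 h at room temperature. After centrifugation, supernatants quantified by LC-MS/MS against a calibration curve with internal standard.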

[2] = target: glycolate oxidase (GOX) in HepaRG-CAR cells (Homo sapiens (Human), UniProt Q9UJM8); assay: HepaRG-CAR cell-based assay for quantitation of glycolate oxidase inhibition (cellular glycolate flux, GC-MS)
[3] = Solubility in phosphate buffered saline (PBS), pH 7.4; format: physicochemical; details: phosphate buffered saline pH 7.4, 1% DMSO, 1 hour shaking at room temperature
Outline: as §1

[4] = target: recombinant full-length human hydroxyacid oxidase 1 (HAO1), the equivalent of hGOX (Homo sapiens (Human), UniProt Q9UJM8); assay: In-vitro human glycolate oxidase (hGOX) assay (Amplex red/HRP fluorescence); format: biochemical
Description: Biological Activity Assay: In-Vitro Human Glycolate Oxidase (hGOX) Assay
The in-vitro glycolate oxidase assay was performed using recombinant full-length human hydroxyacid oxidase 1 (HAO1), the equivalent of hGOX. […] Purified HAO1 was dissolved in assay buffer consisting of 10 mM NaCl, 110 mM KCl, 2 mM MgCl2, 50 mM HEPES (pH 7.4) and 0.01% Triton™ X-100.

[5] = Metabolic stability in human liver microsomal preparation; format: in vitro ADME; details: human liver microsomes, NADPH, 37° C.; for CLint scaled at 1 μM / half-life at 1 μM: pH 7.4; for half-life at 1 μM: read-out: Metabolic Stability t1/2
Outline: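 Compound at 1.5 μM with 0.75 mg/mL human liver microsomes (concentrations before NADPH addition) in 0.1 M potassium phosphate, 1 mM EDTA, pH 7.4 was preincubated 5 min at 37 °C, then started with NADPH. Samples at 0, 5, 15, 30 and 45 min were quenched with acetonitrile/internal standard and analysed by LC/MS.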

[6] = Protein binding (plasma equilibrium dialysis); format: in vitro ADME; details: 5 hours at 37° C.; for fraction unbound at 5 h, 1 μM: read-out: Protein Binding Fraction Bound (converted)
Outline: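 Compound spiked into plasma at 1 μM final (0.2% DMSO) and dialysed against phosphate buffer for 5 hours at 37 °C with shaking. Donor and receiver samples, matrix-matched and acetonitrile-quenched with internal standard, quantified by LC/MS/MS alongside 0-hour plasma samples.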

[7] = Stability in human plasma; format: in vitro ADME; details: for half-life at 2 μM: read-out: Plasma Stability T1/2
Outline: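 Pooled human plasma (pH 7.4-8) at 37° C, test compound spiked from a 0.02 mM solution in phosphate buffer with 0.5% BSA. Samples taken at 0, 5, 15, 30, 45 and 60 min, quenched with acetonitrile containing internal standard, and remaining compound measured by LC/MS.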

[8] = HepaRG-CAR cells, 500 μM glycolate, 48 hours incubation, read-out: IC50
[9] = phosphate buffer (PBS), aqueous buffer, kinetic from dmso stock

glycolate oxidase (GOX) in HepaRG-CAR cells, sequence (Q9UJM8 whole entry): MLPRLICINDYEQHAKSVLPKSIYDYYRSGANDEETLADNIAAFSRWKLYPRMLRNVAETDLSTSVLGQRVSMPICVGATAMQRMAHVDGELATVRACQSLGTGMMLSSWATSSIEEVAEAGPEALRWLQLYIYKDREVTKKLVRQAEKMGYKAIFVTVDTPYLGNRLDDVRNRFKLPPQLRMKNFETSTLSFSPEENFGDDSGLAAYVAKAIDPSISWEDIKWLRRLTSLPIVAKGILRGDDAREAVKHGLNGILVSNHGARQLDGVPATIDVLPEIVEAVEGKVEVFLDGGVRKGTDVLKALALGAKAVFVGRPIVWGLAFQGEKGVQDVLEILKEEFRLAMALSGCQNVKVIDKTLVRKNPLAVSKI
recombinant full-length human hydroxyacid oxidase 1 (HAO1), the equivalent of hGOX, sequence (Q9UJM8 whole entry): as above

| Compound | solubility at 1 h ([1]; kinetic from dmso stock) [µM] | IC50 [2, 8] [µM] | solubility at 1 h [3, 9] [µM] | IC50 [4] [µM] | CLint scaled at 1 μM [5] [L/h/kg] | half-life at 1 μM ([5]; 0-45 min) [h] | recovery at 5 h, 1 μM [6] [%] | fraction unbound at 5 h, 1 μM [6] | half-life at 2 μM [7] [h] | IC50 [2] [µM] | solubility at 1 h [1] [µM] | solubility at 1 h ([3]; read-out: Aqueous Solubility PBS) [µM] | IC50 ([4]; 12.5 nM HAO1, 85 μM glycolate, 2.5% DMSO, read-out: IC50) [µM] | Metabolic Stability Clint [5] [L/h/kg] | Metabolic Stability t1/2 ([5]; 0-45 min) [h] | Protein Binding Recovery ([6]; 1 μM) [%] | Plasma Stability T1/2 [7] [h] |
| --- | --- | --- | --- | --- | --- | --- | --- | --- | --- | --- | --- | --- | --- | --- | --- | --- | --- |
| O=C(O)c1nn[nH]c1Oc1cccc(-c2ccncc2)c1 [Example I-260, 5-(3-(Pyridin-4-yl)phenoxy)-1H-1,2,3-triazole-4-carboxylic acid] | 94.4 (≈ 26.6 µg/mL) | 2.5 | 100 (≈ 28.4 µg/mL) | 0.021 | 0.169 | 10.3 | 114 | 0.047 | 1.79 | – | – | – | – | – | – | – | – |
| O=C(O)c1nn[nH]c1Oc1cccc(-c2ccccc2)c1 [Example I-249, 5-([1,1′-Biphenyl]-3-yloxy)-1H-1,2,3-triazole-4-carboxylic acid] | 108 (≈ 30.2 µg/mL) | 2 | 103 (≈ 29.1 µg/mL) | 0.019 | 0.3 | 5.79 | 99.2 | – | 3.71 | – | – | – | – | – | – | – | – |
| O=C(O)c1nn[nH]c1Oc1cccc(-c2cccc(Cl)c2)c1 [Example I-253, 5-((3′-Chloro-[1,1′-biphenyl]-3-yl)oxy)-1H-1,2,3-triazole-4-carboxylic acid] | 91.7 (≈ 29 µg/mL) | 2.5 | 102 (≈ 32.2 µg/mL) | 0.009 | 0.331 | 5.26 | 112 | – | 1.78 | – | – | – | – | – | – | – | – |
| O=C(O)c1nn[nH]c1Oc1cccc(-c2cccnc2)c1 [Example I-259, 5-(3-(Pyridin-3-yl)phenoxy)-1H-1,2,3-triazole-4-carboxylic acid] | 96.1 (≈ 27.1 µg/mL) | 2 | 93.1 (≈ 26.3 µg/mL) | 0.018 | 0.027 | 64.3 | 105 | 0.221 | 1.33 | – | – | – | – | – | – | – | – |
| O=C(O)c1nn[nH]c1Oc1cncc(-c2cccnc2)c1 [Example I-264, 5-([3,3′-Bipyridin]-5-yloxy)-1H-1,2,3-triazole-4-carboxylic acid] | 105 (≈ 29.7 µg/mL) | > 10 | 108 (≈ 30.4 µg/mL) | 0.38 | 0.0102 | 173 | 123 | – | 1.72 | – | – | – | – | – | – | – | – |
| O=C(O)c1nn[nH]c1Oc1ccc(-c2ccccc2)nc1 [Example I-263, 5-((6-Phenylpyridin-3-yl)oxy)-1H-1,2,3-triazole-4-carboxylic acid] | 99 (≈ 27.9 µg/mL) | > 10 | 106 (≈ 29.9 µg/mL) | 0.141 | 0.149 | 11.7 | 111 | 0.014 | 1.51 | – | – | – | – | – | – | – | – |
| Cc1cc(Oc2[nH]nnc2C(=O)O)ccc1Cl [Example I-258, 5-(4-Chloro-3-methylphenoxy)-1H-1,2,3-triazole-4-carboxylic acid] | 93.5 (≈ 23.7 µg/mL) | 0.3 | 95.8 (≈ 24.3 µg/mL) | 0.044 | < 0.009 | > 83.3 | 110 | – | 1.05 | – | – | – | – | – | – | – | – |
| CS(=O)(=O)c1ccc(-c2cccc(Oc3[nH]nnc3C(=O)O)c2)cc1 [Example I-257, 5-((4′-(Methylsulfonyl)-[1,1′-biphenyl]-3-yl)oxy)-1H-1,2,3-triazole-4-carboxylic acid] | 89.8 (≈ 32.3 µg/mL) | 2.5 | 91.8 (≈ 33 µg/mL) | 0.013 | 0.0918 | 19 | 102 | 0.022 | 3.04 | – | – | – | – | – | – | – | – |
| COc1cccc(-c2ccc(Oc3[nH]nnc3C(=O)O)cc2)c1 [Example I-158, 5-((3′-Methoxy-[1,1′-biphenyl]-4-yl)oxy)-1H-1,2,3-triazole-4-carboxylic acid] | 101 (≈ 31.4 µg/mL) | – | 106 (≈ 33 µg/mL) | 0.008 | < 0.009 | > 83.3 | 92.5 | – | 4.77 | 5 | – | – | – | – | – | – | – |
| COc1ccc(-c2cccc(Oc3[nH]nnc3C(=O)O)c2)cc1 [Example I-250, 5-((4′-Methoxy-[1,1′-biphenyl]-3-yl)oxy)-1H-1,2,3-triazole-4-carboxylic acid] | 99.4 (≈ 30.9 µg/mL) | – | 110 (≈ 34.1 µg/mL) | 0.025 | 0.537 | 3.24 | 98.8 | 0.089 | 2.43 | > 5 | – | – | – | – | – | – | – |
| O=C(O)c1nn[nH]c1Oc1ccc(-c2ccccc2F)cc1 [Example I-174, 5-((2′-Fluoro-[1,1′-biphenyl]-4-yl)oxy)-1H-1,2,3-triazole-4-carboxylic acid] | 70.3 (≈ 21.1 µg/mL) | 3 | 89.8 (≈ 26.9 µg/mL) | 0.027 | 0.149 | 11.7 | 99.9 | – | 1.17 | – | – | – | – | – | – | – | – |
| O=C(O)c1nn[nH]c1Oc1cccc(-c2ccc(Cl)c(Cl)c2)c1 [Example I-255, 5-((3′,4′-Dichloro-[1,1′-biphenyl]-3-yl)oxy)-1H-1,2,3-triazole-4-carboxylic acid] | 81 (≈ 28.3 µg/mL) | 5 | 97.1 (≈ 34 µg/mL) | 0.006 | < 0.009 | > 83.3 | 102 | – | 3.35 | – | – | – | – | – | – | – | – |
| O=C(O)c1nn[nH]c1Oc1cccc(-c2ccc(Cl)cc2)c1 [Example I-252, 5-((4′-Chloro-[1,1′-biphenyl]-3-yl)oxy)-1H-1,2,3-triazole-4-carboxylic acid] | 98 (≈ 30.9 µg/mL) | 2 | 104 (≈ 32.8 µg/mL) | 0.013 | 0.46 | 3.78 | 97.1 | – | 5.02 | – | – | – | – | – | – | – | – |
| O=C(O)c1nn[nH]c1Oc1cncc(-c2ccccc2)c1 [Example I-262, 5-((5-Phenylpyridin-3-yl)oxy)-1H-1,2,3-triazole-4-carboxylic acid] | 94.2 (≈ 26.6 µg/mL) | > 10 | 97.2 (≈ 27.4 µg/mL) | 0.191 | < 0.009 | > 83.3 | 120 | 0.009 | 1.63 | – | – | – | – | – | – | – | – |
| Cc1cc(Oc2[nH]nnc2C(=O)O)ccc1Br [Example I-037, 5-(4-Bromo-3-methylphenoxy)-1H-1,2,3-triazole-4-carboxylic acid] | 96.1 (≈ 28.6 µg/mL) | 0.4 | 96.8 (≈ 28.9 µg/mL) | 0.034 | < 0.009 | > 83.3 | 105 | – | 0.786 | – | – | – | – | – | – | – | – |
| O=C(O)c1nn[nH]c1Oc1ccc(-c2ccc(F)cc2)cc1 [Example I-160, 5-((4′-Fluoro-[1,1′-biphenyl]-4-yl)oxy)-1H-1,2,3-triazole-4-carboxylic acid] | 64.6 (≈ 19.3 µg/mL) | 2.5 | 101 (≈ 30.3 µg/mL) | 0.012 | 0.419 | 4.14 | 93.6 | – | 2.88 | – | – | – | – | – | – | – | – |
| O=C(O)c1nn[nH]c1Oc1ccc(-c2ccccn2)cc1 [Example I-261, 5-(4-(Pyridin-2-yl)phenoxy)-1H-1,2,3-triazole-4-carboxylic acid] | – | > 10 | – | – | – | – | – | – | – | – | 105 (≈ 29.6 µg/mL) | 101.5 (≈ 28.6 µg/mL) | 0.15 | 0.0948 | 18.301 | 111.0 | 1.328 |
| O=C(O)c1nn[nH]c1Oc1ccc2ccccc2c1 [Example I-058, 5-(Naphthalen-2-yloxy)-1H-1,2,3-triazole-4-carboxylic acid] | 81.5 (≈ 20.8 µg/mL) | 2 | 90.8 (≈ 23.2 µg/mL) | 0.05 | 0.126 | 13.8 | 101 | – | 0.852 | – | – | – | – | – | – | – | – |
| O=C(O)c1[nH]nnc1Oc1ccc(-c2ccc(Cl)c(Cl)c2)cc1 [Example I-171, 5-((3′,4′-Dichloro-[1,1′-biphenyl]-4-yl)oxy)-1H-1,2,3-triazole-4-carboxylic acid] | 45.8 (≈ 16 µg/mL) | > 10 | 96.3 (≈ 33.7 µg/mL) | 0.01 | 0.865 | 2.01 | 87.5 | – | 1.93 | – | – | – | – | – | – | – | – |
